{
  "source": "paper PMC8484505",
  "about": "(Cell Reports Medicine, 2021)",
  "key": {"[1]": {"assay": "Population PK analysis of oral semaglutide in PIONEER 1, 2, 3, 5, 8 and 9", "assay_type": "in vivo, human"}, "[2]": {"details": "stated in discussion, no reference given; cited from earlier work"}, "[3]": {"details": "SUSTAIN-6, T2D population with high CV risk; cited from earlier work"}},
  "data": [
    {"compound": "CC[C@H](C)[C@H](NC(=O)[C@H](Cc1ccccc1)NC(=O)[C@H](CCC(=O)O)NC(=O)[C@H](CCCCNC(=O)COCCOCCNC(=O)COCCOCCNC(=O)CC[C@H](NC(=O)CCCCCCCCCCCCCCCCC(=O)O)C(=O)O)NC(=O)[C@H](C)NC(=O)[C@H](C)NC(=O)[C@H](CCC(N)=O)NC(=O)CNC(=O)[C@H](CCC(=O)O)NC(=O)[C@H](CC(C)C)NC(=O)[C@H](Cc1ccc(O)cc1)NC(=O)[C@H](CO)NC(=O)[C@H](CO)NC(=O)[C@@H](NC(=O)[C@H](CC(=O)O)NC(=O)[C@H](CO)NC(=O)[C@@H](NC(=O)[C@H](Cc1ccccc1)NC(=O)[C@@H](NC(=O)CNC(=O)[C@H](CCC(=O)O)NC(=O)C(C)(C)NC(=O)[C@@H](N)Cc1cnc[nH]1)[C@@H](C)O)[C@@H](C)O)C(C)C)C(=O)N[C@@H](C)C(=O)N[C@@H](Cc1c[nH]c2ccccc12)C(=O)N[C@@H](CC(C)C)C(=O)N[C@H](C(=O)N[C@@H](CCCNC(=N)N)C(=O)NCC(=O)N[C@@H](CCCNC(=N)N)C(=O)NCC(=O)O)C(C)C", "note": "[oral semaglutide, semaglutide]", "values": [
      {"measurement": "lower exposure compared to subjects not reporting GI disease", "setting": "[1]; 34 patients with gastric ulcer, non-significant", "value": 11, "unit": "%"},
      {"measurement": "exposure compared to subjects not reporting GI disease", "setting": "[1]; 174 subjects with chronic gastritis", "value": "No effect differences"},
      {"measurement": "fraction of subjects with exposure levels considered below the therapeutic range", "setting": "[1]; oral semaglutide 14 mg", "value": 3, "unit": "%"}
    ]},
    {"compound": "semaglutide", "values": [
      {"measurement": "half-life", "setting": "[2]", "value": "~1", "unit": "week"}
    ]},
    {"compound": "semaglutide [s.c. semaglutide]", "values": [
      {"measurement": "reduction in the hazard ratio of major adverse cardiovascular events (MACE)", "setting": "[3]", "value": 26, "unit": "%"}
    ]}
  ]
}
